Literature values in PMC7655065, “Effect of 3-subsitution of quinolinehydroxamic acids on selectivity of histone deacetylase isoforms” (Journal of Enzyme Inhibition and Medicinal Chemistry, 2020).

How the values were obtained:
HDAC6 = test system: HDAC6; set-up: method as in PMID 29304284; conditions: printed in Figure 2, previously synthesised compound; cited from earlier work
HCT116 cells = test system: HCT116 cells; set-up: method as in PMID 27344487; conditions: reference compounds, read-out: Antiproliferative activity IC50, HCT116; cited from earlier work
A549 cells = test system: A549 cells; set-up: method as in PMID 27344487; conditions: reference compounds, read-out: Antiproliferative activity IC50, A549; cited from earlier work

## O=C(NO)c1ccc(CNc2cccc3cccnc23)cc1 [Compound 13, N-hydroxy-4-((quinolin-8-ylamino)methyl)benzamide]
HDAC6
  IC50: 0.29 nM

## O=C(/C=C/c1cccc(S(=O)(=O)Nc2ccccc2)c1)NO [PXD101, (E)-N-hydroxy-3–(3-(N-phenylsulfamoyl)phenyl)acrylamide]
HCT116 cells
  IC50: 130 ± 10 nM
A549 cells
  IC50: 780 ± 70 nM
